From patent US5068244A, “Benzocyclohexanes and analgesic compositions thereof” (Roussel Uclaf, priority 1988, dated 1991)

Molecular target: T1, opiate receptor K (Cavia porcellus, UniProt P41144)
T1 construct: Membranous sediment preserved at -30° C; and prepared from guinea pig cerbelli were used; from tissue; host or cells: guinea pig cerebellum membranes
Test: Binding of the opiate receptor K in vitro (displacement of 3H ethylketocyclazocine)
Settings: guinea pig cerebellum membranes, 3H ethylketocyclazocine 1 nM, Tris pH 7.7, 25° C., 40 minutes; read-out: CI50 (the source's name)
Procedure: Membranous sediment preserved at -30° C. (possibly for 30 days) and prepared from guinea pig cerbelli were used. The sediments were put in suspension in the buffer Tris pH 7.7. Fractions of 2 ml were distributed in hemolysis tubes and ^3 H ethylketocyclazocine 1 nM and the product to be studied were added. The following were determined: the maximum quantity of fixed radioactivity in the presence of ^3 H ethylketocyclazocine alone, the quantity of radioactivity bonded in a non-specific manner in the presence of the tritiated ligand and of an excess (10^-5 M) of the reference product known under the name of U-50488 H and the displacement of specific bonding produced by a dose of 5×10^-5 M of the product to be tested.
These tests were carried out in triplicate and aliquotes of 2 ml were incubated at 25° C. for 40 minutes. After returning to 0° C. for 5 minutes at the end of the incubation, they were filtered with Whatman GF/C filters, rinsed in Tris buffer pH 7.7 and the radioactivity was counted in the presence of scintillating Triton. When the product to be tested displaced the specifically fixed radioactivity by more than 50%, the 50% inhibiting concentration (CI50) was determined by a 7 dose scale. The results of the 50% inhibiting concentration were then expressed in nM. The CI50 was therefore the concentration of the product studied, expressed in nM, necessary to displace 50% of the specifically fixed radioactivity on the receptor studied (LAHTI et al, 1982, Life Sci., Vol. 31, 2257) The results are as follows: […]

T1 sequence (P41144 whole entry): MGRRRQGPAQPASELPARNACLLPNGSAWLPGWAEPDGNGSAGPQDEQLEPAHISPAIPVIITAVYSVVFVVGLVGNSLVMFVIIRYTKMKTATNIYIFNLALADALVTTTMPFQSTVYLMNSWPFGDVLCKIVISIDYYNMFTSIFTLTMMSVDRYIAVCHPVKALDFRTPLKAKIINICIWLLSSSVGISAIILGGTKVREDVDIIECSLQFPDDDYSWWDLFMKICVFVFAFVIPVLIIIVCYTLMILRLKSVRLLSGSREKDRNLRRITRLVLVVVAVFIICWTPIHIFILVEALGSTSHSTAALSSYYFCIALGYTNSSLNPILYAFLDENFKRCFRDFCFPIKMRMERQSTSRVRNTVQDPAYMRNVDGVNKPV

Row | SMILES | IC50 [µM]
1 | CN(C(=O)Cc1ccc([N+](=O)[O-])cc1)[C@H]1c2ccccc2CC[C@@H]1N1CCCC1 (relative stereo) [Example 2, Trans (±) N-methyl-4-nitro-N-[2-(1-pyrrolidinyl)-1,2,3,4-tetrahydro-1-naphthyl]-benzene acetamide] | 0.012
2 | CN(C(=O)Cc1cccc2ccccc12)[C@H]1c2ccccc2CC[C@@H]1N1CCCC1 (relative stereo) [Example 3, Trans (±) N-methyl-N-[2-(1-pyrrolidinyl)-1,2,3,4-tetrahydro-1-naphthyl]-1-naphthalene acetamide] | 0.011
3 | CN(C(=O)Cc1cccc2sccc12)[C@H]1c2ccccc2CC[C@@H]1N1CCCC1 (relative stereo) [Example 20, Trans (±) N-methyl-N-[2-(1-pyrrolidinyl)-1,2,3,4-tetrahydro-1-naphthyl]-4-benzo-[b]-thiophene acetamide] | 0.0033
